Reference: patent US9757316B2, “Zinc-lysine complex” (Colgate-Palmolive Company, priority 2012, dated 2017)

Experiments:
[1] = biological target: Bovine Serum Albumin (BSA) (Bos taurus, UniProt P02769); experiment: Flocculation: interaction of ZLC with BSA solutions (turbidity, pH, observation); assay type: physicochemical; settings: for Turbidity (NTU) / observation / pH: ZLC about 15 mg/ml, 5 hours at 37° C.
Description: Turbidity and pH of solutions are measured 5 hours after the mixtures were placed in a 37° C. oven, and the results are shown in Table 3.

[2] = Hydrolysis reaction: pH and turbidity of diluted ZLC solutions before and after aging; assay type: physicochemical; settings: for pH after aging / turbidity after aging (NTU): aged in 37° C. oven over 5 hours; for initial pH / initial turbidity (NTU): before aging; for initial turbidity (NTU): nephelometer
Description: Hydrolysis reaction: A 185 mg/ml ZLC solution is prepared and diluted several-fold and aged in a 37° C. oven over 5 hours for turbidity studies. […] Turbidity of the solutions is measured using a nephelometer, results being given in nephelometric turbidity units (NTU).
The precipitates formed in the 8×, 16× and 32× diluted solutions are collected by centrifugation and identified as crystalline ZnO by PXRD. From the supernatant, a single crystal is grown and shown by X-ray diffraction to be Lysine Monohydrochloride Dihydrate (LysineHCl·2H2O).
The mechanism of the ZLC hydrolysis reaction can be expressed as [Zn(Lysine)2Cl]^+Cl^−·2H2O+H2O→ZnO+Lysine·HCl·2H2O

[3] = sample 1: DI water, 0% BSA, initial pH 6.4
[4] = sample 2: 1% BSA, initial pH 7.2
[5] = sample 3: 1% BSA, pH adjusted to 5.1

Sequence of Bovine Serum Albumin (BSA) (P02769 25-607): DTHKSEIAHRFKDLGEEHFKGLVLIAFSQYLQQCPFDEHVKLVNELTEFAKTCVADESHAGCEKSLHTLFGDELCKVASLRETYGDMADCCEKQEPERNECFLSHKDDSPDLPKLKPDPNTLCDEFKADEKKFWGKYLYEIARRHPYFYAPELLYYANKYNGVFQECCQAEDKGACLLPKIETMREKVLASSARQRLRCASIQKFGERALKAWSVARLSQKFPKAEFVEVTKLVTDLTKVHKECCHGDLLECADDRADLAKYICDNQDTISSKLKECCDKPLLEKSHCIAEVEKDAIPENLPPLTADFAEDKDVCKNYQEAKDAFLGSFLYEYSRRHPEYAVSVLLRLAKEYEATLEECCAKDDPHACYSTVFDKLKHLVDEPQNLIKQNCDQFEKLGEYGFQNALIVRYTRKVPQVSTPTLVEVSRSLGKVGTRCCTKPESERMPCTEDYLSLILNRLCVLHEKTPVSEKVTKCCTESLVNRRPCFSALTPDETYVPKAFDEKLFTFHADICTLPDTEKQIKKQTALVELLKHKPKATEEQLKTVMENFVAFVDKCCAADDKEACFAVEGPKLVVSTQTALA

## NCCCCC(N)C(=O)O.NCCCCC(N)C(=O)O.O.O.[Cl-].[Cl-].[Zn+2] (centres unmarked) [ZLC, [Zn(C6H14N2O2)2Cl]^+Cl^−]
[1]; BSA as protein
  protein flocculation: ability to flocculate proteins
[1]; [3]
  Turbidity (NTU): 357 NTU
  observation: slightly cloudy
  pH: 8
[1]; [4]
  Turbidity (NTU): >1000 NTU
  observation: very cloudy
  pH: 8.2
[1]; [5]
  Turbidity (NTU): >1000 NTU
  observation: very cloudy
  pH: 8
[2]; 5.78 mg/ml ZLC solution
  pH after aging: 8
  turbidity after aging (NTU): >1000 NTU
  initial pH: 8
  initial turbidity (NTU): 40.1 NTU
[2]; 11.56 mg/ml ZLC solution
  pH after aging: 7.8
  turbidity after aging (NTU): >1000 NTU
  initial pH: 7.8
  initial turbidity (NTU): 14.8 NTU
[2]; 23.125 mg/ml ZLC solution
  pH after aging: 7.7
  turbidity after aging (NTU): 247.4 NTU
  initial pH: 7.7
  initial turbidity (NTU): 0.7 NTU
[2]; 46.25 mg/ml ZLC solution
  pH after aging: 7.4
  turbidity after aging (NTU): 2.8 NTU
  initial pH: 7.4
  initial turbidity (NTU): 1.5 NTU
[2]; 92.5 mg/ml ZLC solution
  pH after aging: 7
  turbidity after aging (NTU): 2.6 NTU
  initial pH: 7
  initial turbidity (NTU): 2.8 NTU
[2]; 185 mg/ml ZLC solution
  pH after aging: 6.8
  turbidity after aging (NTU): 4.1 NTU
  initial pH: 6.8
  initial turbidity (NTU): 4.7 NTU
[2]; precipitates of 8×, 16× and 32× diluted solutions identified as crystalline ZnO by PXRD
  stability of the complex upon dilution with water: disassociates upon dilution
